Results reported in article PMC11317875 (Chemical Science, 2024).

test system: Wild-type Mycobacterium bovis BCG; assay: not given; type: cell-based; settings: 100 μM probe

How did the “accumulation in cytosolic extracts” value turn out when `OC[C@H]1O[C@H](O[C@H]2O[C@H](CO)[C@@H](O)[C@H](F)[C@H]2O)[C@H](O)[C@@H](O)[C@@H]1O` [3F-Tre, 3-deoxy-3-fluoro-trehalose] was run?
The value was “accumulate”.

test system: Mycobacterium tuberculosis; assay: Time dependent F-Tre uptake, HPAEC-PAD of cytosolic extracts; type: cell-based; settings: 100 μM probe, cytosolic extracts
Procedure: lyophilised, resuspended in 1 mL 18 MΩ H2O and filtered through a 10-kDa molecular weight cut-off centrifuge filter (Amicon) and the filtrate analysed. HPAEC-PAD was performed on a Dionex ICS5000+ system with a CarboPac PA-20 analytical column (3 mm x 150 mm) and PA-20 guard column (3 mm x 30 mm) kept at 20 °C. Pulsed amperometry with standard quadrupole waveform was used for detection. The system was equipped with an autosampler that was set up to inject 10 μL sample volumes. Multistep gradient […]
Chromeleon 7 software (Dionex) was used for data processing.
Table S11: High performance anion exchange chromatography KOH elution gradient for F-Tre analysis Time (min) KOH conc. (mM) Flow rate (mL/min)
To quantify uptake, the peak area of 2F-Tre, 3F-Tre and 6F-Tre standards at varying concentrations were measured (Chromeleon 7 software). The peak area was plotted against concentration and simple linear regression was plotted. To determine the concentration of F-Tre analogues in cytosolic samples the area of the peaks of interest was measured (Chromeleon 7 software) and the concentration determined from the calibration […]
Time dependent F-Tre uptake
M. tuberculosis was grown to an OD600 of 0.8, then 2F-Tre, 3F-Tre, 4F-Tre or 6F-Tre were added to a final concentration of 100 µM. Controls with the equivalent volume of water or equivalent concentration of trehalose were also prepared. 5 mL aliquots were taken at T=0, 0.5, 1, 1.5, 2, 3, 4, 6, 8 h and the cells were harvested by centrifugation (2,916 x g, 5 min, 22 ° C) and washed (5 mL PBST) three times. The pellets were then resuspended in 1 mL H2O and lysed by mechanical disruption using 0.1 mm zirconia/silica beads (BioSpec Products) on a FastPrep (MP Biomedicals) ribolyser (4 x 45 s cycles with 90 s on ice in between).
Samples were then centrifuged (16,200 x g, 10 min, 22 °C) and the supernatant collected, lyophilised, resuspended in 1 mL 18 MΩ H2O and filtered through a 10-kDa molecular weight cut-off centrifuge filter (Amicon). The filtrate was analysed by HPAEC-PAD and quantified as described above.

How did the accumulation rate turn out when `OC[C@H]1O[C@H](O[C@H]2O[C@H](CO)[C@@H](O)[C@H](F)[C@H]2O)[C@H](O)[C@@H](O)[C@@H]1O` [3F-Tre, 3-deoxy-3-fluoro-trehalose] was run?
The accumulation rate was 0.94 µM/h.

same assay, conditions: Time 0 h, 100 µM probe

Which Mtb cytosolic concentration does the source give for `OC[C@H]1O[C@H](O[C@H]2O[C@H](CO)[C@@H](O)[C@H](F)[C@H]2O)[C@H](O)[C@@H](O)[C@@H]1O` [3F-Tre, 3-deoxy-3-fluoro-trehalose] here?
The Mtb cytosolic concentration was 0 ± 0 µM.

same assay, conditions: Time 0.5 h, 100 µM probe

For `OC[C@H]1O[C@H](O[C@H]2O[C@H](CO)[C@@H](O)[C@H](F)[C@H]2O)[C@H](O)[C@@H](O)[C@@H]1O` [3F-Tre, 3-deoxy-3-fluoro-trehalose], which Mtb cytosolic concentration is on record?
Its Mtb cytosolic concentration is 250 ± 102 µM.

same assay, conditions: Time 1 h, 100 µM probe

Which Mtb cytosolic concentration does the source give for `OC[C@H]1O[C@H](O[C@H]2O[C@H](CO)[C@@H](O)[C@H](F)[C@H]2O)[C@H](O)[C@@H](O)[C@@H]1O` [3F-Tre, 3-deoxy-3-fluoro-trehalose] here?
Its Mtb cytosolic concentration is 423 ± 256 µM.

same assay, conditions: Time 1.5 h, 100 µM probe

`OC[C@H]1O[C@H](O[C@H]2O[C@H](CO)[C@@H](O)[C@H](F)[C@H]2O)[C@H](O)[C@@H](O)[C@@H]1O` [3F-Tre, 3-deoxy-3-fluoro-trehalose] was tested. Which Mtb cytosolic concentration did it give?
The Mtb cytosolic concentration was 1030 ± 335 µM.

same assay, conditions: Time 2 h, 100 µM probe

How did the Mtb cytosolic concentration turn out when `OC[C@H]1O[C@H](O[C@H]2O[C@H](CO)[C@@H](O)[C@H](F)[C@H]2O)[C@H](O)[C@@H](O)[C@@H]1O` [3F-Tre, 3-deoxy-3-fluoro-trehalose] was run?
Its Mtb cytosolic concentration is 1628 ± 25 µM.

same assay, conditions: Time 4 h, 100 µM probe

`OC[C@H]1O[C@H](O[C@H]2O[C@H](CO)[C@@H](O)[C@H](F)[C@H]2O)[C@H](O)[C@@H](O)[C@@H]1O` [3F-Tre, 3-deoxy-3-fluoro-trehalose] was tested. Which Mtb cytosolic concentration did it give?
The Mtb cytosolic concentration was 3016 ± 102 µM.

same assay, conditions: Time 6 h, 100 µM probe

Which Mtb cytosolic concentration does the source give for `OC[C@H]1O[C@H](O[C@H]2O[C@H](CO)[C@@H](O)[C@H](F)[C@H]2O)[C@H](O)[C@@H](O)[C@@H]1O` [3F-Tre, 3-deoxy-3-fluoro-trehalose] here?
The Mtb cytosolic concentration was 5872 ± 297 µM.

same assay, conditions: Time 8 h, 100 µM probe

Which Mtb cytosolic concentration does the source give for `OC[C@H]1O[C@H](O[C@H]2O[C@H](CO)[C@@H](O)[C@H](F)[C@H]2O)[C@H](O)[C@@H](O)[C@@H]1O` [3F-Tre, 3-deoxy-3-fluoro-trehalose] here?
Its Mtb cytosolic concentration is 7892 ± 72 µM.

same assay, conditions: at 8 hours

Which “increased accumulation compared to 2F- and 6F-Tre” value does the source give for `OC[C@H]1O[C@H](O[C@H]2O[C@H](CO)[C@@H](O)[C@H](F)[C@H]2O)[C@H](O)[C@@H](O)[C@@H]1O` [3F-Tre, 3-deoxy-3-fluoro-trehalose] here?
Its value is ~20%.

same assay, conditions: up to the 8 hour timepoint

`OC[C@H]1O[C@H](O[C@H]2O[C@H](CO)[C@@H](O)[C@H](F)[C@H]2O)[C@H](O)[C@@H](O)[C@@H]1O` [3F-Tre, 3-deoxy-3-fluoro-trehalose] was tested. Which saturation of uptake did it give?
The saturation of uptake was “no saturation of uptake”.

test system: Mtb; assay: not given; type: cell-based, Mycobacterium tuberculosis; settings: 100 μM probe

How did the “new spots in the lipid extracts (TLC)” value turn out when `OC[C@H]1O[C@H](O[C@H]2O[C@H](CO)[C@@H](O)[C@H](F)[C@H]2O)[C@H](O)[C@@H](O)[C@@H]1O` [3F-Tre, 3-deoxy-3-fluoro-trehalose] was run?
The value was “new spots”.

same assay, conditions: 100 μM probe; Fig. 8 shows Mtb and M. bovis BCG

`OC[C@H]1O[C@H](O[C@H]2O[C@H](CO)[C@@H](O)[C@H](F)[C@H]2O)[C@H](O)[C@@H](O)[C@@H]1O` [3F-Tre, 3-deoxy-3-fluoro-trehalose] was tested. Which “additional band in the TDM region (TLC)” value did it give?
The value was “one additional lower polarity TDM band”.

And the “additional lower polarity bands than TMM (TLC)” value?
The value was “Two additional lower polarity bands than TMM”.

target: LpqY (Mycolicibacterium thermoresistibile, UniProt G7CES0); assay: Microscale thermophoresis (MST) binding to LpqY; settings: not given
Sequence (G7CES0 29-471): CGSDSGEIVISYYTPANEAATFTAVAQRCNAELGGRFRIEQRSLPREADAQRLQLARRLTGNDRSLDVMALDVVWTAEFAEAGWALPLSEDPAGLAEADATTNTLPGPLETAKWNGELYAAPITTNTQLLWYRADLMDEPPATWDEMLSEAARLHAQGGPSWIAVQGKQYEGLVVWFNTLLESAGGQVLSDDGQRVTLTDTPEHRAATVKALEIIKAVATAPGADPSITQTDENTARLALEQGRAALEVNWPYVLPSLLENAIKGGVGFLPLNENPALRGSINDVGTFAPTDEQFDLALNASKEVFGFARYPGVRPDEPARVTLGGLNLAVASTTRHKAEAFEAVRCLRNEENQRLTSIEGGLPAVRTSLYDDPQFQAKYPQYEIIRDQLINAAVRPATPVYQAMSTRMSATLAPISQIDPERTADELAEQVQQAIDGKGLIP

`OC[C@H]1O[C@H](O[C@H]2O[C@H](CO)[C@@H](O)[C@H](F)[C@H]2O)[C@H](O)[C@@H](O)[C@@H]1O` [3F-Tre, 3-deoxy-3-fluoro-trehalose] was tested. Which Kd did it give?
Its Kd is 111 ± 7.1 µM.

test system: Mycobacterium tuberculosis; assay: F-Tre uptake at a single time point, HPAEC-PAD of cytosolic extracts; type: cell-based; settings: 0-200 μM probe, ion chromatography of cytosolic extracts

`OC[C@H]1O[C@H](O[C@H]2O[C@H](CO)[C@@H](O)[C@H](F)[C@H]2O)[C@H](O)[C@@H](O)[C@@H]1O` [3F-Tre, 3-deoxy-3-fluoro-trehalose] was tested. Which “uptake / accumulation in Mtb cells” value did it give?
The value was “significant dose-dependent increase in the accumulation”.

same assay, conditions: Mtb + 25 µM F-Tre, HPAEC trace

With `OC[C@H]1O[C@H](O[C@H]2O[C@H](CO)[C@@H](O)[C@H](F)[C@H]2O)[C@H](O)[C@@H](O)[C@@H]1O` [3F-Tre, 3-deoxy-3-fluoro-trehalose] as the molecule, how does the “Peak area of F-Tre peak” value read?
Its value is 1.869 nC*min.

same assay, conditions: Mtb + 50 µM F-Tre, HPAEC trace

For `OC[C@H]1O[C@H](O[C@H]2O[C@H](CO)[C@@H](O)[C@H](F)[C@H]2O)[C@H](O)[C@@H](O)[C@@H]1O` [3F-Tre, 3-deoxy-3-fluoro-trehalose], which “Peak area of F-Tre peak” value is on record?
The value was 3.093 nC*min.

same assay, conditions: Mtb + 100 µM F-Tre, HPAEC trace

With `OC[C@H]1O[C@H](O[C@H]2O[C@H](CO)[C@@H](O)[C@H](F)[C@H]2O)[C@H](O)[C@@H](O)[C@@H]1O` [3F-Tre, 3-deoxy-3-fluoro-trehalose] as the molecule, how does the “Peak area of F-Tre peak” value read?
The value was 6.779 nC*min.

same assay, conditions: Mtb + 200 µM F-Tre, HPAEC trace

`OC[C@H]1O[C@H](O[C@H]2O[C@H](CO)[C@@H](O)[C@H](F)[C@H]2O)[C@H](O)[C@@H](O)[C@@H]1O` [3F-Tre, 3-deoxy-3-fluoro-trehalose] was tested. Which “Peak area of F-Tre peak” value did it give?
The value was 12.530 nC*min.

test system: M. bovis BCG; assay: not given; type: cell-based, Mycobacterium bovis BCG; settings: 100 μM probe

How did the “new spots in the lipid extracts (TLC)” value turn out when `OC[C@H]1O[C@H](O[C@H]2O[C@H](CO)[C@@H](O)[C@H](F)[C@H]2O)[C@H](O)[C@@H](O)[C@@H]1O` [3F-Tre, 3-deoxy-3-fluoro-trehalose] was run?
The value was “new spots”.
